The record followed here is patent US20240174727A1, “LONG-ACTING NATRIURETIC PEPTIDES AND USES THEREOF” (Eli Lilly and Company, priority 2022, published 2024).

The subject of one assay is plasma cGMP. In words: In vivo monkey studies, plasma cGMP ELISA. More on the design: species or system male cynomolgus monkeys. As to the method:
In vivo monkey studies were conducted as described in detail below. Young adult-to-adult male cynomolgus monkeys were given a single dose subcutaneously (SC). Blood was collected predose and at various pre-determined timepoints throughout the study period. Aliquot of cynomolgus monkey plasma was received for cyclic cGMP (cGMP) measurement and stored at −80° C. prior to use.
Control plasma was made for determining the recovery rate of spike-in cGMP using Enzo cGMP complete ELISA kit (Enzo Life Sciences, Inc, Farmingdale, NY, cat no. ADI-901-164). Briefly, blood from male Sprague Dawley rats (Inotiv, Indianapolis, IN), about 7 months old, was collected in a BD Vacutainer EDTA tube (Becton Dickinson, Franklin Lakes, NJ, cat no. BD-367856) with volume of approximate 4 mL through retro orbital bleeding. Plasma was prepared by spinning the tube in an Eppendorf Refrigerated Centrifuge 5810R (Brinkman Instruments, Inc, Westbury, NY) at 3500 rpm (3000×g) for 10 min at 4° C. Plasma was collected as Positive Control plasma. Cyclic GMP (cGMP standard from Enzo cGMP complete ELISA kit) was added to the positive control plasma at a final concentration of additional 40 nM. Positive Control and Spiked-in Control plasma were aliquoted and stored at −80° C.
The cGMP content was measured using the Enzo cGMP complete ELISA kit following the manufacturer's directions with modifications as described below. The cGMP standards provided in the kit were diluted 1:3 ranging from 50 nM to 0.023 nM in 1× assay buffer that was diluted in water from 2× assay buffer provided in the kit. The cGMP standards ([…]) were transferred to a 96-well polypropylene plate (Thermo Scientific, cat no. 442587).
Plasma samples were thawed from −80° C. and diluted 1:20 in 1× assay buffer in the above plate with a final volume of 150 μL. Assay buffer was added (150 μL) for both a non-specific binding control (in the absence of cGMP antibody) and a maximum binding control (in the absence of competing cGMP) in duplicate wells. Positive Control and Spiked-in Control plasma were diluted 1:20 in 1× assay buffer with a final volume of 150 μL in duplicate wells of the above plate. All diluted plasma was mixed by pipetting up and down several times.
Acetylation reagent mix was prepared by adding 1-part of acetic anhydride into 2-parts of triethylamine provided in the kit and mixing well using Vortex (Scientific Industries, Inc, Bohemia, NY). All controls, standards, and plasma samples were acetylated by adding 15 μL of acetylation reagent mix into the plate, one column at a time, and shaking for 1 min on a Titer Plate Shaker (Lab-Line Instrument, Inc., Melrose Park, IL) at room temperature. The plate was shaken for an additional 1 min following the acetylation of the last column to ensure the reaction was completed.
Acetylated controls, standard and plasma samples were transferred (100 μL) to an ELISA plate (n=1). Then 50 μL of cGMP conjugate were added to each well followed by the addition of 50 μL cGMP antibody to each well except for two non-specific binding wells, in which 50 μL of 1× assay buffer were added. The plate was then sealed and shaken for 2 h at room temperature on the plate shaker. Following this incubation, the plate was washed five times using 200 μL of 1× wash buffer diluted in water from 5× wash buffer provided in the kit. Then, 200 μL of para-Nitrophenylphosphate (pNpp) were added to each well. The plate was sealed with a new plate sealer and shaken in dark for 1 h at room temperature on the plate shaker. Finally, 50 μL of stop solution were added to each well to stop the enzyme reaction. The plate was then read at 405 nm using SpectraMax Plus (Molecular Devices, San Jose, CA).
The mean absorbance at 405 nm (O.D. 405 nm) for the non-specific binding controls was subtracted from the O.D. 405 nm of all samples. The subtracted O.D. 405 nm of all samples were then normalized with the mean subtracted O.D. 405 nm of the maximum binding controls as B/B0%. […]
(In general: An ELISA detects its analyte on a solid surface through an enzyme-linked reagent.)

For another assay, the target named is T1, human NPRA (human, UniProt P16066 33-1061).
T1 sequence (looked up): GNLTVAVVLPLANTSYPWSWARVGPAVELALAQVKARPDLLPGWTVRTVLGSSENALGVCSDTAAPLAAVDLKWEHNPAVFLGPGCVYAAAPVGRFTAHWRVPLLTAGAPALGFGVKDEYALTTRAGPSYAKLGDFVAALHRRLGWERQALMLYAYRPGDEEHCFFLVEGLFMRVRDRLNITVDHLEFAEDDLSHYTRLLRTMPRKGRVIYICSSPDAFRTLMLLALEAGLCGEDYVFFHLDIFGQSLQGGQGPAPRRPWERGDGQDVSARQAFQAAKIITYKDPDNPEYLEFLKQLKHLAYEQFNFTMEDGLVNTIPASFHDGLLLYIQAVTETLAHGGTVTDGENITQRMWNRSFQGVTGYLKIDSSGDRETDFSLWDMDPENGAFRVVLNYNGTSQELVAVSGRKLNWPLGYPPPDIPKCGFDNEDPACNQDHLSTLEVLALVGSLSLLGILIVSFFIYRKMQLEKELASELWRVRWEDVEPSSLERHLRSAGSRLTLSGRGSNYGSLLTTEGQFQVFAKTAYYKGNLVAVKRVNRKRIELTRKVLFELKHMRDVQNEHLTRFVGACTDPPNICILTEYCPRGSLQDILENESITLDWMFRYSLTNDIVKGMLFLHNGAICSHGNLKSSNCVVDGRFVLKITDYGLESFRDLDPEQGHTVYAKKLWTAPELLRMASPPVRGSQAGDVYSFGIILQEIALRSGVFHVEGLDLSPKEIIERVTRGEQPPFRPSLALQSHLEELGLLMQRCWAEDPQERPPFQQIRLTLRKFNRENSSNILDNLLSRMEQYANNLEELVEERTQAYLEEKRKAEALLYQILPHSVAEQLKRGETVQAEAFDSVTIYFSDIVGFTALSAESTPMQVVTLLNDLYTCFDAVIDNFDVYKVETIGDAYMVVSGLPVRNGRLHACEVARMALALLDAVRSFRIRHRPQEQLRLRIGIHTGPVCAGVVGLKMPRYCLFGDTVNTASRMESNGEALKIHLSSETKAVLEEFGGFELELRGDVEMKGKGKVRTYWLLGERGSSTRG
Briefly: cell-based or functional assay.

Turning to “(BFAEN2-γGlu)-KEKEKG-PEG24-EK-βAla-RSS[CFGGKIDRIGHYSGLGC]PSFRHGSPSSGAPPPS-NH2 (EKXRSSCFGGKIDRIGHYSGLGCPSFRHGSPSSGAPPPS; BFAEN2-γGlu, PEG24, C-terminal amide; MOD_RES 1 N-terminal modified with (BFAEN2-beta-Ala)-KEKEKG-PEG24-; wherein BFAEN2 is Bifurcated Fatty Acid Enantiomer 2; SITE 3 X at position 3 is beta-Alanine; MOD_RES 39 Amidation; DISULFID 7..23 Intrachain thioacetal bond) [Example 145]”, the “Net cGMP (nM) Change from Baseline 0.083 h” value in the assay on plasma cGMP (dose 25 nmol/kg, 0.083 h postdose, monkey plasma) is -0.82 nM. Besides, the “Net cGMP (nM) Change from Baseline 0.25 h” value in the assay on plasma cGMP (dose 25 nmol/kg, 0.25 h postdose, monkey plasma) was found to be 2.94 nM. In the assay with plasma cGMP (dose 25 nmol/kg, 0.5 h postdose, monkey plasma), the “Net cGMP (nM) Change from Baseline 0.5 h” value is listed as 4.37 nM. The “Net cGMP (nM) Change from Baseline 1 h” value in the assay on plasma cGMP (dose 25 nmol/kg, 1 h postdose, monkey plasma) was found to be 3.19 nM. Besides, the “Net cGMP (nM) Change from Baseline 2 h” value with plasma cGMP (dose 25 nmol/kg, 2 h postdose, monkey plasma) is reported as 8.88 nM. Further, the “Net cGMP (nM) Change from Baseline 4 h” value in the assay with plasma cGMP (dose 25 nmol/kg, 4 h postdose, monkey plasma) is reported as 11.23 nM. Moreover, the “Net cGMP (nM) Change from Baseline 8 h” value in the assay on plasma cGMP (dose 25 nmol/kg, 8 h postdose, monkey plasma) came out at 17.87 nM. Besides, in the assay on plasma cGMP (dose 25 nmol/kg, 12 h postdose, monkey plasma), the “Net cGMP (nM) Change from Baseline 12 h” value was found to be 22.09 nM. In the assay with plasma cGMP (dose 25 nmol/kg, 24 h postdose, monkey plasma), the “Net cGMP (nM) Change from Baseline 24 h” value turned out to be 24.61 nM. In addition, the “Net cGMP (nM) Change from Baseline 36 h” value in the assay with plasma cGMP (dose 25 nmol/kg, 36 h postdose, monkey plasma) is given as 31.53 nM. For the same molecule, in the assay with plasma cGMP (dose 25 nmol/kg, 48 h postdose, monkey plasma), the “Net cGMP (nM) Change from Baseline 48 h” value was determined as 21.81 nM. Also, the “Net cGMP (nM) Change from Baseline 72 h” value in the assay on plasma cGMP (dose 25 nmol/kg, 72 h postdose, monkey plasma) came out at 21 nM. Also, in the assay on plasma cGMP (dose 25 nmol/kg, 96 h postdose, monkey plasma), the “Net cGMP (nM) Change from Baseline 96 h” value is listed as 14.82 nM. Moreover, the “Net cGMP (nM) Change from Baseline 120 h” value in the assay with plasma cGMP (dose 25 nmol/kg, 120 h postdose, monkey plasma) was 14.4 nM. Also, the “Net cGMP (nM) Change from Baseline 144 h” value in the assay on plasma cGMP (dose 25 nmol/kg, 144 h postdose, monkey plasma) amounted to 11.99 nM. The “Net cGMP (nM) Change from Baseline 168 h” value in the assay with plasma cGMP (dose 25 nmol/kg, 168 h postdose, monkey plasma) came to 5.89 nM. In addition, the “net cGMP levels (result in words)” value in the assay on plasma cGMP (monkeys, single SC dose, plasma) was “increased net cGMP levels”.

B1: Example 23 (peptide)
peptide: XEKEKEKGSXRRSSCFGGRIDRIGAQSGLGCPSFRXGGPSSGAPPPS
modifications: HOOC-(CH2)18-CO-(γGlu)-EKEKEKGS-4Pal-RRSS[CFGGRIDRIGAQSGLGC]PSFR-4Pal-GGPSSGAPPPS-NH2; disulfide linkage between the bracketed Cys
On to B1, for which the “cGMP Assay (EC50, pM) w/Casein” value with human NPRA is 3490 pM.

B2: Example 35 (peptide)
peptide: XEKEKEKGSXKRSSCFGGRIDRIGHQSGLGCPSFRHGGPSSGAPPPS
modifications: HOOC-(CH2)18-CO-(γGlu)-EKEKEKGS-4Pal-KRSS[CFGGRIDRIGHQSGLGC]PSFRHGGPSSGAPPPS-NH2; disulfide linkage between the bracketed Cys
Turning to B2, the “cGMP Assay (EC50, pM) w/Casein” value with human NPRA is 118 pM.
